The results in this text go back to patent US20240252654A1, “IMPROVED SMALL MOLECULES” (University of Dundee, priority 2020, published 2024).

A word on the IC80: it is the concentration needed for an effect of 80%.

Series [1] deals with BRD2 and BRD4. In words: Dose-response degradation immunoblot in RCC4-HA-VHL cells. Type of series: cell-based. Conditions: 6 h, 500 nM to 6.4 pM. The method, then: Compound MN674 was designed and synthesised as another analogue of SIM1. […] MN674 was tested in the mammalian cell line RCC4-HA-VHL in a dose-response degradation assay. The assay involved immunoblots (see FIG. 21 for raw western blot data and FIG. 22 for dose-response curves) displaying 6 hour treatments of eight 5-fold serial dilutions from 500 nM to 6.4 pM of each compound. […] RCC4-HA-VHL cells were exposed to eight 5-fold serial dilutions (from 500 nM to […]) of heterotrivalent Bet-Bet-VHL PROTACs SIM1 and MN674 for 6 hour treatments, before lysates were harvested and analysed on immunoblots (FIG. 21). A Bio-Rad MP imaging system was used for fluorescence detection of BRD2 (IRDye 800CW), BRD4_long (IRDye 800CW), BRD4_short (IRDye 800CW) and house-keeping gene Tubulin (Rhodamine). The intensities of the bands were determined using ImageLab software and all BET protein intensities normalised to Tubulin in order to convert them into a percentage band intensity rationalised to the 0.1% DMSO-only control. These intensities were then plotted in GraphPad Prism for Dose-Response [Inhibition] Variable slope (four parameter) analyses to generate the curves for BRD2 (FIG. 22a) and BRD4 (FIG. 22b), to determine the DC50 values presented in Table 3 (FIG. 20). The experiment is representative of n=2 i.e. biological duplicate.
(Immunoblotting shows a protein as a band on a membrane.)

Series [2] deals with VHL and full-length BRD4 WT, N140F, or N433F. The experiment in a line: Kinetic NanoBRET ternary complex assay, NanoLuc-BRD4 with HaloTag-VHL. Type of series: cell-based, human. The method, then:
NanoBRET Ubiquitination, Ternary Complex, and Biosensor Experiments. For endogenous live cell BET:Ubiquitin and BET:VHL assays, CRISPR HiBiT-BRD2, HiBiT-BRD3, and HiBiT-BRD4 HEK293 cells stably expressing LgBiT were transfected with 2 μg of HaloTag-UBB or HaloTag-VHL vectors in 6-well plates using FuGENE HD (Promega). For full transient NanoBRET experiments with NanoLuc-BRD4 WT, N433F, or N140F mutants, HEK293 cells (8×10^5) were co-transfected with 0.02 μg NanoLuc-BRD4 and 2 μg of HaloTag-VHL vectors. For transient NanoBRET experiments with the BRD4 NL-BD1-BD2-HT biosensor containing either the WT tandem BD1-BD2 domain (AA 44-460) or containing the N433F mutation, HEK293 cells (8×10^5) were transfected with 0.02 μg biosensor plasmid and 2 μg carrier DNA. […] NanoBRET NanoGlo (Promega) substrate was added and BRET was measured two hours post-compound treatment using a GloMax Discover Microplate Reader (Promega). Dual filtered luminescence was collected with a 460/80 nm bandpass filter and a 610 nm long pass filter (acceptor, HaloTag NanoBRET ligand) using an integration time of 0.5 s. For all NanoBRET experiments, background subtracted NanoBRET ratios expressed in milliBRET units were calculated from the equation: […]
For orientation: BRET reads energy transfer from a luciferase to a nearby fluorophore.

Series [3] relates to MV4; 11 cells. The experiment in a line: Correlative cell viability in cMyc-HiBiT MV4;11 cells (CellTiter-Glo). Conditions: 1 nM, after 6 h. Type of series: cell-based. As to the method:
Monitoring cMyc Loss and Cell Viability in MV4; 11 Cells. CRISPR cMyc-HiBiT MV4; 11 cells (Promega) were plated at a density of 5×10^4 cells per well in solid, white 96-well tissue culture plates (Corning Costar #3917). Following an overnight incubation, they were treated with 1-100 nM concentration of the indicated compounds and at the plotted time points, cMyc levels were determined using luminescent measurement with NanoGlo HiBiT lytic reagent (Promega). Replicate plate of all compound treatments were prepared and at identical timepoints as the protein level measurements, cell viability was measured using Cell-Titer Glo (Promega). Plates were shaken on an orbital shaker for 10-20 min before reading luminescence on a GloMax Discover Microplate Reader (Promega).
For orientation: HiBiT is a short tag that completes a luciferase, so light tracks the accessible tagged protein.

The target of series [4] is T1, HiBiT-BRD4 (Homo sapiens, UniProt O60885).
T1 construct: endogenously HiBiT tag the N-terminal genomic loci of BRD2, BRD3, or BRD4; endogenous in cells; host or cells: HEK293 stably expressing LgBiT, CRISPR/Cas9 edited
The experiment in a line: NanoBRET live cell residence time. Type of series: cell-based. Conditions: live cells. As to the method: (§1) NanoBRET Target Engagement and Residence Time. For target engagement experiments in live and permeabilized cells, CRISPR HiBiT-BRD4 HEK293 cells stably expressing LgBiT were plated into white 96-well tissue culture plates at a density of 2×10^4 cells/well. Cells were equilibrated for 1 h with energy transfer probes and the indicated test compound prior to NanoBRET measurements. NanoBRET tracers were prepared at a working concentration of 20× in tracer dilution buffer (12.5 mM HEPES, 31.25% PEG-400, pH 7.5). NanoBRET BRD Tracer-02 was added to cells at a final concentration of 0.5 μM. To measure NanoBRET in live cells, NanoBRET NanoGlo Substrate and Extracellular NanoLuc Inhibitor (Promega) were added according to the manufacturer's recommended protocol, and filtered luminescence was measured on a GloMax Discover luminometer equipped with 450 nm BP filter (donor) and 600 nm LP filter (acceptor) using 0.3 s integration time. To measure NanoBRET in permeabilized cells, digitonin was added to the cells to a final concentration of 50 μg/mL and Extracellular NIuc inhibitor was omitted during the detection step. […] Cells were incubated in 15 mL conical tubes with caps loosened in a tissue culture incubator for 1 h. Following incubation, cells were spun at 300×g for 5 min, washed once with Opti-MEM, spun a second time at 300×g for 5 min, then resuspended with fresh Opti-MEM before plating at 2×10^4 cells/well. NanoBRET BRD Tracer-02 was added at a final concentration of 0.5 μM cells and kinetic NanoBRET measurements were collected on a GloMax Discover. NanoBRET ratios were expressed in milliBRET units and calculated according to the equation in the NanoBRET Ubiquitination, Ternary Complex and Biosensor Experiments section.

The target in series [5] is T1, HiBiT-BRD4. In words: NanoBRET target engagement, permeabilized and live cells. Type of series: cell-based. The conditions noted are these: for IC80: live cell format, unit given with each value, read-out: IC80 for tracer displacement; for binding to endogenous HiBiT-BRD4: permeabilized cells. The method, then:
Cells were treated with a fluorescent BET tracer, then incubated with the indicated compounds at various concentrations to measure competitive displacement.
as §1

In series [6] the test system is 22Rv1 cells. The experiment in a line: PARP cleavage immunoblot in 22Rv1 cells. The class given is cell-based. Conditions: 22Rv1, 10 nM, 24 h (MT1, MZ1 up to 48 h). The method, then: Next, the inventors assessed the functional effects of SIM1 on the viability of 22Rv1 cancer cells. […] Cells died of apoptosis as indicated by prevented cleavage of PARP upon co-treatment with QVD-OPh, a pan-caspase inhibitor, and not of necroptosis, as shown by co-treatment with Necrostatin-1 (FIG. 3d and FIG. 10a).
Degradation assays. MV4; 11 cells were seeded at 1×10^6 cells/mL of 10 cm dishes 12-24 h before treatment. 22Rv1 and HEK293 cells were seeded at 2.5-6×10^5 cells/well of 6 well plates 12-24 h before treatment. Cells were treated with test compounds with and without inhibitors as indicated or an equivalent volume of DMSO and lysed at the stated time point. For lysis, cells were washed twice in ice cold PBS (Invitrogen) then lysed in 250 μL/plate for MV4; 11 cells or 80 μL/well for 22Rv1 and HEK293 cells of ice cold lysis buffer containing 50 mM Tris hydrochloride pH 7.4, 150 mM sodium chloride, 1 mM EDTA pH 7.4, 1% v/v Triton X-100, 1×Halt™ Protease Inhibitor Cocktail (ThermoFisher). […] Protein concentration was determined by BCA assay (Pierce) and the absorbance at 562 nm measured by spectrophotometry (NanoDrop ND1000). […] Bands were detected using a ChemiDoc MP imaging system (BioRad) and quantified (Image Studio Lite, version 5.2) with normalisation to β-actin and the DMSO control per time point. […]

As to `Cc1ncsc1-c1ccc(CNC(=O)[C@@H]2C[C@@H](O)CN2C(=O)[C@@H](NC(=O)COCC(C)(COCCOCCNC(=O)C[C@@H]2N=C(c3ccc(Cl)cc3)c3c(sc(C)c3C)-n3c(C)nnc32)COCCOCCNC(=O)C[C@@H]2N=C(c3ccc(Cl)cc3)c3c(sc(C)c3C)-n3c(C)nnc32)C(C)(C)C)cc1` [MN674, N,N′-(8-((2-(((S)-1-((2S,4R)-4-hydroxy-2-((4-(4-methylthiazol-5-yl)benzyl)carbamoyl)pyrrolidin-1-yl)-3,3-dimethyl-1-oxobutan-2-yl)amino)-2-oxoethoxy)methyl)-8-methyl-3,6,10,13-tetraoxapentadecane-1,15-diyl)bis(2-((S)-4-(4-chlorophenyl)-2,3,9-trimethyl-6H-thieno[3,2-f][1,2,4]triazolo[4,3-a][1,4]diazepin-6-yl)acetamide)], in series [1], the “degradation potency relative to SIM1” value was “comparable in degradation potencies to SIM1”.

With `Cc1sc2c(c1C)C(c1ccc(Cl)cc1)=N[C@@H](CC(=O)NCCOCCOCCOCCOCCOCCOCCOCCNC(=O)C[C@@H]1N=C(c3ccc(Cl)cc3)c3c(sc(C)c3C)-n3c(C)nnc31)c1nnc(C)n1-2` [MT1], the ternary complex formation result in series [2] was “not”. Moreover, in series [3], the measurable cellular death result is reported as “not”. Moreover, in series [4], the “residence time on BRD4” value is given as “longer residence time”. Besides, in series [5], the IC80 is 100 nM; the “binding to endogenous HiBiT-BRD4” value is “near-identical binding affinities and IC50 values”. Further, in series [6], the “PARP cleavage / cell death” value is listed as “did not cause observable PARP cleavage”.

As for `Cc1ncsc1-c1ccc(CNC(=O)[C@@H]2C[C@H](O)CN2C(=O)[C@@H](NC(=O)COCC(C)(COCCOCCOCCNC(=O)C[C@@H]2N=C(c3ccc(Cl)cc3)c3c(sc(C)c3C)-n3c(C)nnc32)COCCOCCOCCNC(=O)C[C@@H]2N=C(c3ccc(Cl)cc3)c3c(sc(C)c3C)-n3c(C)nnc32)C(C)(C)C)cc1` [cis-SIM1, N,N′-(11-((2-(((S)-1-((2S,4S)-4-hydroxy-2-((4-(4-methylthiazol-5-yl)benzyl)carbamoyl)pyrrolidin-1-yl)-3,3-dimethyl-1-oxobutan-2-yl)amino)-2-oxoethoxy)methyl)-11-methyl-3,6,9,13,16,19-hexaoxahenicosane-1,21-diyl)bis(2-((S)-4-(4-chlorophenyl)-2,3,9-trimethyl-6H-thieno[3,2-f][1,2,4]triazolo[4,3-a][1,4]diazepin-6-yl)acetamide)], the ternary complex formation entry in series [2] is recorded as “not”. For the same molecule, the measurable cellular death result in series [3] was “not”. The “residence time on BRD4” value in series [4] is listed as “identical displacement kinetics as MT1”. For the same molecule, the cell permeability entry in series [5] (inferred from live versus permeabilized cells) was “readily cell-permeable”. In series [5], the IC80 was found to be 100 nM; the “binding to endogenous HiBiT-BRD4” value was “near-identical binding affinities and IC50 values”. Moreover, the “shift of binding affinity to BRD4 compared to MT1” value in series [5] (live cells) came to 10 ×.
